Measurements taken from patent EP3227262B1, “SULFIDE ALKYL AND PYRIDYL REVERSE SULFONAMIDE COMPOUNDS FOR HBV TREATMENT” (Novira Therapeutics Inc., priority 2014, dated 2016).

Test system: HBV
Assay: HBV replication inhibition assay (encapsidated HBV DNA in supernatant, bDNA QuantiGene)
Assay type: cell-based
Conditions: Hepatitis B virus, 144 h, HepG2.2.15 cells, supernatant at day 6, read-out: Extra HBV DNA

Which EC50 does the source give for `O=C(Nc1cc(F)c(F)c(F)c1)c1ccc(F)c(SC2CCC(O)CC2)c1` (mixture of isomers) [Compound 10, (cis/trans)-4-Fluoro-3-((4-hydroxycyclohexyl)thio)-N-(3,4,5-trifluorophenyl)benzamide] here?
Its EC50 is 0.09 µM.

How did the EC50 turn out when `O=C(Nc1ccc(F)c(Cl)c1)c1ccc(F)c(SC2CCC(O)CC2)c1` (mixture of isomers) [Compound 24, (cis/trans)-N-(3-Chloro-4-fluorophenyl)-4-fluoro-3-((4-hydroxycyclohexyl)thio)benzamide] was run?
The EC50 was 0.042 µM.

For `O=C(Nc1cc(F)c(F)c(F)c1)c1ccc(F)c(SC2CCC(C(=O)O)CC2)c1` (mixture of isomers) [Compound 62, (cis/trans)-4-((2-Fluoro-5-((3,4,5-trifluorophenyl)carbamoyl)phenyl)thio)cyclohexanecarboxylic acid], which EC50 is on record?
The EC50 was 0.71 µM.

How did the EC50 turn out when `O=C(Nc1ccc(F)c(F)c1)c1ccc(F)c(SC2CCC(C(=O)O)CC2)c1` (mixture of isomers) [Compound 63, (cis/trans)-4-((S-((3,4-Difluorophenyl)carbamoyl)-2-fluorophenyl)thio)cyclohexanecarboxylic acid] was run?
Its EC50 is 1.6 µM.

`O=C(Nc1cc(F)c(F)c(F)c1)c1ccc(F)c(SC2CC3C(C2)C3C(=O)O)c1` (mixture of isomers) [Compound 98, (cis/trans)-3-((2-fluoro-5-((3,4,5-trifluorophenyl)carbamoyl)phenyl)thio)bicyclo[3.1.0]hexane-6-carboxylic acid] was tested. Which EC50 did it give?
Its EC50 is 1.3 µM.

Which EC50 does the source give for `O=C1CCCCC(Sc2cccc(C(=O)Nc3ccc(F)c(Cl)c3)c2)C1` (racemic) [Compound 38, (±)-N-(3-Chloro-4-fluorophenyl)-3-((3-oxocycloheptyl)thio)benzamide] here?
Its EC50 is 1.27 µM.

Which EC50 does the source give for `O=C(Nc1ccc(F)c(Cl)c1)c1cccc(S[C@H]2CCCC[C@@H](O)C2)c1` (racemic) [Compound 39A, (±)-N-(3-Chloro-4-fluorophenyl)-3-(((1S,3R)-3-hydroxycycloheptyl)thio)benzamide] here?
The EC50 was 1.29 µM.

`O=C(Nc1ccc(F)c(Cl)c1)c1cccc(S[C@@H]2CCCC[C@@H](O)C2)c1` (racemic) [Compound 39B, (±)-N-(3-Chloro-4-fluorophenyl)-3-(((1R,3R)-3-hydroxycycloheptyl)thio)benzamide] was tested. Which EC50 did it give?
Its EC50 is 1.29 µM.

Which EC50 does the source give for `O=C(Nc1ccc(F)c(Cl)c1)c1cccc(SCCCO)c1` [Compound 40, N-(3-Chloro-4-fluorophenyl)-3-((3-hydroxypropyl)thio)benzamide] here?
The EC50 was 0.76 µM.

With `O=C(Nc1ccc(F)c(Cl)c1)c1cc(NS(=O)(=O)C2CC2)ccn1` [Compound 126, N-(3-Chloro-4-fluorophenyl)-4-(cyclopropanesulfonamido)picolinamide] as the compound, how does the EC50 read?
The EC50 was 1 µM.

Test system: HBV
Assay: Inhibition of HBV replication dot-blot assay in HBV-producing hepatoma cell line
Assay type: cell-based
Conditions: Hepatitis B virus, 144 h; activity in Dot-Blot assay; HepG2-2.2.15 cells; reduction in HBV DNA levels, six days
Protocol: Compounds active in the HBV assembly assay are tested for their activity and toxicity in cellular assay. In the first anti-viral assay, the ability of compounds to inhibit HBV replication in an HBV-producing hepatoma cell line using the dot-blot method is evaluated.
(§1) Briefly, confluent monolayers of HepG2-2.2.15 cells are incubated with complete medium containing various concentrations of a test compound. Three days later, the culture medium is replaced with fresh medium containing the appropriately diluted test compound. Six days following the initial administration of the test compound, the cell culture supernatant is collected, and cell lysis is performed. The samples are applied onto Nylos membranes and DNA is immobilized to the membrane by UV cross-linking. After pre-hybridization, the HBV probe is added and the hybridization is performed overnight. The membranes are exposed to the KODAK films; antiviral activity is calculated from the reduction in HBV DNA levels (EC50). The EC50 for antiviral activity is calculated from the dose response curves of active compounds. Assay performance over time is monitored by the use of the standard positive control compounds ETV, BAY 41-4109, and HAP-1.
Selected compounds are tested for their activity and toxicity in cellular assay. In the first anti-viral assay, the ability of compounds to inhibit HBV replication in an HBV-producing hepatoma cell line using the dot-blot method is evaluated.
as §1, with “Confluent monolayers” for “Briefly, confluent monolayers”, “lysis was” for “lysis is”

For `O=C(Nc1cc(F)c(F)c(F)c1)c1ccc(F)c(SC2CCC(O)CC2)c1` (mixture of isomers) [Compound 10, (cis/trans)-4-Fluoro-3-((4-hydroxycyclohexyl)thio)-N-(3,4,5-trifluorophenyl)benzamide], which EC50 is on record?
Its EC50 is under 10 µM.

How did the EC50 turn out when `O=C(Nc1ccc(F)c(Cl)c1)c1ccc(F)c(SC2CCC(O)CC2)c1` (mixture of isomers) [Compound 24, (cis/trans)-N-(3-Chloro-4-fluorophenyl)-4-fluoro-3-((4-hydroxycyclohexyl)thio)benzamide] was run?
The EC50 was under 10 µM.

For `O=C(Nc1cc(F)c(F)c(F)c1)c1ccc(F)c(SC2CCC(C(=O)O)CC2)c1` (mixture of isomers) [Compound 62, (cis/trans)-4-((2-Fluoro-5-((3,4,5-trifluorophenyl)carbamoyl)phenyl)thio)cyclohexanecarboxylic acid], which EC50 is on record?
Its EC50 is under 10 µM.

Which EC50 does the source give for `O=C(Nc1ccc(F)c(F)c1)c1ccc(F)c(SC2CCC(C(=O)O)CC2)c1` (mixture of isomers) [Compound 63, (cis/trans)-4-((S-((3,4-Difluorophenyl)carbamoyl)-2-fluorophenyl)thio)cyclohexanecarboxylic acid] here?
The EC50 was under 10 µM.

With `O=C(Nc1cc(F)c(F)c(F)c1)c1ccc(F)c(SC2CC3C(C2)C3C(=O)O)c1` (mixture of isomers) [Compound 98, (cis/trans)-3-((2-fluoro-5-((3,4,5-trifluorophenyl)carbamoyl)phenyl)thio)bicyclo[3.1.0]hexane-6-carboxylic acid] as the compound, how does the EC50 read?
Its EC50 is under 10 µM.

Which EC50 does the source give for `CC1(S(=O)(=O)Nc2cc(C(=O)Nc3ccc(F)c(Cl)c3)ccn2)CC1` [Compound 130, N-(3-Chloro-4-fluorophenyl)-2-(1-methylcyclopropanesulfonamido)isonicotinamide] here?
The EC50 was under 10 µM.

Which EC50 does the source give for `CCS(=O)(=O)Nc1cc(C(=O)Nc2ccc(F)c(Cl)c2)ccn1` [Compound 131] here?
Its EC50 is under 10 µM.

With `CCCS(=O)(=O)Nc1cc(C(=O)Nc2ccc(F)c(Cl)c2)ccn1` [Compound 133, N-(3-Chloro-4-fluorophenyl)-2-(propylsulfonamido)isonicotinamide] as the compound, how does the EC50 read?
The EC50 was under 10 µM.

`O=C(Nc1ccc(F)c(Cl)c1)c1ccnc(NS(=O)(=O)C2CCCCC2)c1` [Compound 134, N-(3-Chloro-4-fluorophenyl)-2-(cyclohexanesulfonamido)isonicotinamide] was tested. Which EC50 did it give?
The EC50 was under 10 µM.

Which EC50 does the source give for `O=C(Nc1ccc(F)c(Cl)c1)c1cc(F)nc(NS(=O)(=O)C2CC2)c1` [Compound 137, N-(3-Chloro-4-fluorophenyl)-2-(cyclopropanesulfonamido)-6-fluoroisonicotinamide] here?
The EC50 was under 10 µM.

Which EC50 does the source give for `O=C(Nc1ccc(F)c(Cl)c1)c1cc(F)nc(NS(=O)(=O)c2ccccc2)c1` [Compound 138, N-(3-Chloro-4-fluorophenyl)-2-fluoro-6-(phenylsulfonamido)isonicotinamide] here?
Its EC50 is under 10 µM.

With `O=C(Nc1ccc(F)c(Cl)c1)c1ccnc(NS(=O)(=O)Cc2ccccc2)c1` [Compound 139, N-(3-Chloro-4-fluorophenyl)-2-(phenylmethylsulfonamido)isonicotinamide] as the compound, how does the EC50 read?
The EC50 was under 10 µM.

How did the EC50 turn out when `O=C(Nc1ccc(F)c(Cl)c1)c1ccnc(NS(=O)(=O)c2cccs2)c1` [Compound 141, N-(3-Chloro-4-nuorophenyl)-2-(thiophene-2-sulfonamido)isonicotinamide] was run?
Its EC50 is under 10 µM.

Which EC50 does the source give for `O=C(Nc1ccc(F)c(Cl)c1)c1cc(NS(=O)(=O)C2CC2)ncc1F` [Compound 144, N-(3-Chloro-4-fluorophenyl)-2-(cyclopropanesulfonamido)-5-fluoroisonicotinamide] here?
The EC50 was under 10 µM.

For `O=C(Nc1ccc(F)c(Cl)c1)c1cc(NS(=O)(=O)C2CC2)ncc1Cl` [Compound 149, 5-Chloro-N-(3-chloro-4-fluorophenyl)-2-(cyclopropanesulfonamido)isonicotinamide], which EC50 is on record?
The EC50 was under 10 µM.

For `O=C(Nc1ccc(F)c(Cl)c1)c1ccnc(NS(=O)(=O)CC2CCCC2)c1` [Compound 150, N-(3-Chloro-4-fluorophenyl)-2-(cyclopentylmethylsulfonamido)isonicotinamide], which EC50 is on record?
Its EC50 is under 10 µM.

`Cc1ccc(CS(=O)(=O)Nc2cc(C(=O)Nc3ccc(F)c(Cl)c3)ccn2)cc1` [Compound 152, N-(3-Chloro-4-fluorophenyl)-2-(p-tolylmethylsulfonamido)isonicotinamide] was tested. Which EC50 did it give?
Its EC50 is under 10 µM.

For `CC(C)(C)S(=O)(=O)Nc1cc(C(=O)Nc2ccc(F)c(Cl)c2)ccn1` [Compound 154, N-(3-Chloro-4-fluorophenyl)-2-(1,1-dimethylethylsulfonamido)isonicotinamide], which EC50 is on record?
The EC50 was under 10 µM.

`O=C(Nc1ccc(F)c(Cl)c1)c1ccnc(NS(=O)(=O)CC2(O)CCC2)c1` [Compound 155, N-(3-Chloro-4-fluorophenyl)-2-((1-hydroxycyclobutyl)methylsulfonamido) isonicotinamide] was tested. Which EC50 did it give?
The EC50 was under 10 µM.

`CC(C)(O)CS(=O)(=O)Nc1cc(C(=O)Nc2ccc(F)c(Cl)c2)ccn1` [Compound 156, N-(3-Chloro-4-fluorophenyl)-2-(2-hydroxy-2-methylpropylsulfonamido) isonicotinamide] was tested. Which EC50 did it give?
The EC50 was under 10 µM.

`CC(C)S(=O)(=O)Nc1cc(C(=O)Nc2ccc(F)c(Cl)c2)ccn1` [Compound 163, N-(3-Chloro-4-fluorophenyl)-2-(1-methylethylsulfonamido)isonicotinamide] was tested. Which EC50 did it give?
The EC50 was under 10 µM.

With `CC(C)(C)CS(=O)(=O)Nc1cc(C(=O)Nc2ccc(F)c(Cl)c2)ccn1` [Compound 164, N-(3-Chloro-4-fluorophenyl)-2-(2,2-dimethylpropylsulfonamido)isonicotinamide] as the compound, how does the EC50 read?
Its EC50 is under 10 µM.

How did the EC50 turn out when `CC(C)S(=O)(=O)Nc1cc(C(=O)Nc2ccc(F)c(F)c2)ccn1` [Compound 165, N-(3,4-Difluorophenyl)-2-(1-methylethylsulfonamido)isonicotinamide] was run?
Its EC50 is under 10 µM.

How did the EC50 turn out when `COc1ccc(CCS(=O)(=O)Nc2cc(C(=O)Nc3ccc(F)c(Cl)c3)ccn2)cc1` [Compound 173, N-(3-Chloro-4-fluorophenyl)-2-(2-(4-methoxyphenyl)ethylsulfonamido)isonicotinamide] was run?
Its EC50 is under 10 µM.

With `Cc1cc(NC(=O)c2ccc(F)c(NS(=O)(=O)c3ccn(C)n3)c2)ccc1F` [Compound 197, 4-fluoro-N-(4-fluoro-3-methylphenyl)-3-(1-methyl-1H-pyrazole-3-sulfonamido)benzamide] as the compound, how does the EC50 read?
The EC50 was under 10 µM.

For `COCCS(=O)(=O)Nc1cccc(C(=O)Nc2ccc(F)c(Cl)c2)c1` [Compound 198, N-(3-chloro-4-fluorophenyl)-3-(2-methoxyethylsulfonamido)benzamide], which EC50 is on record?
The EC50 was under 10 µM.

For `O=C(Nc1ccc(F)c(Cl)c1)c1cccc(NS(=O)(=O)c2cccs2)c1` [Compound 199, N-(3-chloro-4-fluorophenyl)-3-(thiophene-2-sulfonamido)benzamide], which EC50 is on record?
Its EC50 is under 10 µM.

Which EC50 does the source give for `O=C(Nc1ccc(F)c(Cl)c1)c1cccc(NS(=O)(=O)c2cn[nH]c2)c1` [Compound 200, N-(3-chloro-4-fluorophenyl)-3-(1H-pyrazole-4-sulfonamido)benzamide] here?
The EC50 was under 10 µM.

Which EC50 does the source give for `Cc1n[nH]c(C)c1S(=O)(=O)Nc1cccc(C(=O)Nc2ccc(F)c(Cl)c2)c1` [Compound 201, N-(3-chloro-4-fluorophenyl)-3-(3,5-dimethyl-1H-pyrazole-4-sulfonamido)benzamide] here?
Its EC50 is under 10 µM.

With `O=C(Nc1ccc(F)c(Cl)c1)c1cccc(NS(=O)(=O)N2CCC(OCc3ccccc3)CC2)c1` [Compound 207, 3-(4-(benzyloxy)piperidine-1-sulfonamido)-N-(3-chloro-4-fluorophenyl)benzamide] as the compound, how does the EC50 read?
The EC50 was under 10 µM.
